Earlier results in US20250134923A1, “SUPERABSORBENT HYDROGELS WITH LIPASE INHIBITOR” (JUNION LABS PTE. LTD., priority 2021, published 2025).

Test system: fat absorption
Conditions: therapeutic doses (120 mg with meals)

In the case of `CCCCCCCCCCC[C@@H](C[C@@H]1OC(=O)[C@H]1CCCCCC)OC(=O)[C@H](CC(C)C)NC=O` [Orlistat, (2S,3S,5S)-5-[(S)-2-formamido4-methyl-valeryloxy]-2-hexyl-3-hydroxy-hexadecanoic 1,3 acid lactone], the additional caloric deficit is listed as “approximately 200 calories” and the “inhibition of fat absorption (of ingested fat)” value is listed as “approximately 30%”.
